# According to patent US20120132797A1, “MEANS AND METHODS FOR DIAGNOSING THYROID DISORDERS” (BASF SE, priority 2009, published 2012):
# Tested on: Wistar (Crl:WI(Han)) rats
# Assay: Mass spectrometry-based plasma metabolite profiling of rats treated with known inducers of thyroid function impairment
# Assay type: in vivo, rat
# Conditions: female rats, ratio of group medians vs controls, Table 3
# In short: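 Rats aged 10-11 weeks, 5/sex/dose vs 10/sex controls, dosed at low and high levels; retro-orbital plasma taken under isoflurane on days 7, 14 and 28 after 16-20 h fast. Polar and non-polar fractions profiled by GC-MS (derivatised) and LC-MS/MS (MRM plus full scan), normalised to pool samples; Welch t-test by sex and day gives p-values and median ratios.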
structure (smiles),measurement,setting,value
Cc1ncc[nH]1 [2-Methylimidazole],"Arachidonic acid (C20:cis[58,11,14]4)",fh7 (study day 7),1.04
same,Behenic acid (C22:0),fh7 (study day 7),1.34
same,Cholesterol,fh7 (study day 7),1.14
same,Cysteine,fh7 (study day 7),0.70
same,"Docosahexaenoic acid (C22:cis[4,7,10,13,16,19]6)",fh7 (study day 7),1.37
same,Dodecanol,fh7 (study day 7),1.06
same,Eicosanoic acid (C20:0),fh7 (study day 7),1.06
same,Glycerol phosphate,fh7 (study day 7),1.21
same,Heptadecanoic acid (C17:0),fh7 (study day 7),1.14
same,"Linoleic acid (C18:cis[9,12]2)",fh7 (study day 7),1.19
same,Nervonic acid C24:(cis[15]1),fh7 (study day 7),1.11
same,Palmitic acid (C16:0),fh7 (study day 7),1.21
same,"Sphingomyelin (d18:1, C16:0)",fh7 (study day 7),1.34
same,Stearic acid (C18:0),fh7 (study day 7),0.99
same,Threonic acid,fh7 (study day 7),1.45
same,"dihomo-gamma-Linolenic acid (C20:cis[8,11,14]3)",fh7 (study day 7),0.83
same,erythro-Sphingosine,fh7 (study day 7),1.38
same,"gamma-Linolenic acid (C18:cis[6,9,12]3)",fh7 (study day 7),0.91
same,myo-Inositol-2-phosphate,fh7 (study day 7),1.61
same,threo-Sphingosine,fh7 (study day 7),1.28
same,"Arachidonic acid (C20:cis[58,11,14]4)",fh14 (study day 14),1.20
same,Behenic acid (C22:0),fh14 (study day 14),1.25
same,Cholesterol,fh14 (study day 14),1.41
same,Cysteine,fh14 (study day 14),0.63
same,"Docosahexaenoic acid (C22:cis[4,7,10,13,16,19]6)",fh14 (study day 14),1.42
same,Dodecanol,fh14 (study day 14),1.11
same,Eicosanoic acid (C20:0),fh14 (study day 14),1.34
same,Glycerol phosphate,fh14 (study day 14),1.26
same,Heptadecanoic acid (C17:0),fh14 (study day 14),1.27
same,"Linoleic acid (C18:cis[9,12]2)",fh14 (study day 14),1.27
same,Nervonic acid C24:(cis[15]1),fh14 (study day 14),1.52
same,Palmitic acid (C16:0),fh14 (study day 14),1.30
same,"Sphingomyelin (d18:1, C16:0)",fh14 (study day 14),1.26
same,Stearic acid (C18:0),fh14 (study day 14),1.02
same,Threonic acid,fh14 (study day 14),1.26
same,"dihomo-gamma-Linolenic acid (C20:cis[8,11,14]3)",fh14 (study day 14),1.53
same,erythro-Sphingosine,fh14 (study day 14),1.61
same,"gamma-Linolenic acid (C18:cis[6,9,12]3)",fh14 (study day 14),1.67
same,myo-Inositol-2-phosphate,fh14 (study day 14),1.60
same,threo-Sphingosine,fh14 (study day 14),1.63
same,"Arachidonic acid (C20:cis[58,11,14]4)",fh28 (study day 28),1.36
same,Behenic acid (C22:0),fh28 (study day 28),1.34
same,Cholesterol,fh28 (study day 28),1.55
same,Cysteine,fh28 (study day 28),0.76
same,"Docosahexaenoic acid (C22:cis[4,7,10,13,16,19]6)",fh28 (study day 28),1.27
same,Dodecanol,fh28 (study day 28),1.05
same,Eicosanoic acid (C20:0),fh28 (study day 28),1.15
same,Glycerol phosphate,fh28 (study day 28),1.26
same,Heptadecanoic acid (C17:0),fh28 (study day 28),1.38
same,"Linoleic acid (C18:cis[9,12]2)",fh28 (study day 28),1.21
same,Nervonic acid C24:(cis[15]1),fh28 (study day 28),1.74
same,Palmitic acid (C16:0),fh28 (study day 28),1.44
same,"Sphingomyelin (d18:1, C16:0)",fh28 (study day 28),1.27
same,Stearic acid (C18:0),fh28 (study day 28),1.17
same,Threonic acid,fh28 (study day 28),0.98
same,"dihomo-gamma-Linolenic acid (C20:cis[8,11,14]3)",fh28 (study day 28),1.26
same,erythro-Sphingosine,fh28 (study day 28),1.69
same,"gamma-Linolenic acid (C18:cis[6,9,12]3)",fh28 (study day 28),2.30
same,myo-Inositol-2-phosphate,fh28 (study day 28),1.70
same,threo-Sphingosine,fh28 (study day 28),1.66
